Experimental data reported in US20250186365A1, “COMBINATION OF ANTISPASMODIC AND OSMOTIC AGENTS FOR TOPICAL PRODUCTS AND METHOD OF USE THEREOF” (priority 2023, published 2025).
Entries after “also recorded” stand apart in the source; their conditions may differ.

Experiments:
[1] = test system: hind limb muscle; assay: Rat hind limb muscle twitch study; assay type: in vivo, Sprague-Dawley rats
Description: Adverting now to the drawings, FIG. 1 is a schematic diagram of a validated muscle twitch experimental set-up in the present disclosure. Here, anesthetized Sprague-Dawley rats were prepared for muscle contraction assessment of their hind limbs. The hind limbs were shaved and secured at the knee and ankle joints to prevent movement. The distal tendon of the targeted muscle was connected to a high-sensitivity force transducer to measure contractile force with precision. Electrical stimulation was delivered via electrodes positioned on the sciatic nerve to evoke muscle contractions. Vehicle (control study) or 5% w/w of HD was topically applied to the dermal area corresponding to the muscle group under study, ensuring proximity for local diffusion and effect. A study was performed to evaluate the effects of HD on muscle contractility using a validated in vivo rat model. The experimental setup was meticulously designed to measure the contractile force of the hind limb muscle in response to electrical stimulation of the sciatic nerve, providing a quantitative assessment of muscle relaxation and contraction dynamics in the presence of HD. Anesthetized Sprague-Dawley rats were used for this study, ensuring minimal variability in response to HD application. Hind limbs were shaved and then immobilized at the knee and ankle joints to isolate the effect to the targeted muscle group. […]

[2] = test system: hairless mice; assay: Rotarod performance study in hairless mice; assay type: in vivo; settings: 5% HD topical; for time spent on Rota Rod: 20 rpm, vehicle 60 seconds
Description: Once the mice were trained, the rod was rotated at a constant speed of 20 rpm. Then the mice were placed on the rotating rod and length of time they could stay on the rotating rod was measured.
The Rotarod study was to investigate the skeletal muscle relaxant effects of HD, specifically its impact on motor coordination and balance in hairless mice. The study was structured to assess both the kinetics of HD's effect over time and its efficacy in inducing muscle relaxation. Efficacy of HD was determined post-treatment at intervals of 15, 30, 60, 75, 90 minutes. Control and Treatment Groups: Each stage included a control group receiving vehicle (Aloe Vera Gel) and a test group treated with HD, 5% w/w HD (0.5 g) in the vehicle (9.5 g Aloe Vera Gel). The topical treatment was applied to the thighs of all four limbs for each mouse.

[3] = test system: mouse extensor digitorum longus muscles; assay: Isolated mouse muscle contraction study
Description: FIG. 4 is a schematic diagram of a validated isolated mouse muscle contraction study. The mouse muscles were isolated and placed in a physiological buffer within a tissue bath. Muscles were anchored at one end to the chamber floor and connected at the other end to a force transducer. After establishing a baseline response to the electrical field stimulation, HD was added to the buffer at concentrations ranging from 0.01% w/w to 1% w/w, and the impact on muscle contractile force was recorded over time at the fixed frequency of 150 Hz.
This subsequent study was aimed to elucidate the specific effects of HD on isolated muscle tissue from mice, to quantify its potential use as a muscle relaxant. The study's design allowed for the controlled assessment of muscle contractility in a physiological buffer, minimizing external variables present in in vivo models. Muscle Isolation: The mouse extensor digitorum longus muscles were carefully dissected and mounted in a tissue bath super fused with oxygenated physiological buffer, ensuring tissue viability throughout the experiment (FIG. 4). Baseline Measurement: Initial contractile responses were established via electrical field stimulation at various frequencies, setting a comparative baseline for subsequent HD application effects. HD Application: Differing concentrations of HD (ranging from 0.01% to 1%) were introduced to the buffer. The muscle's contractile force (amplitude, which is the maximum contractile force) was determined to assess HD's concentration-dependent effects (FIG. 6). Stimulation Frequency Adjustment: To explore the frequency-dependent nature of HD's action, muscles underwent varied frequencies of electrical stimulation. This protocol is aimed to simulate conditions of sporadic muscle spasms.

## CCCCC(O)CO (centres unmarked) [HD, 1,2-hexanediol]
[1]; 5% w/w HD topical vs vehicle, p<0.05
  duration of muscle contraction: statistically significant reduction
[1]; 5% w/w HD topical, electrical stimulation at 150 Hz
  ability to maintain tetanic contraction during the stimulus period: failing to maintain tetanic tension; also recorded: unable to maintain tetanic contraction
[2]
  recovery from the muscle relaxant effect: complete recovery of all mice
[2]; 30 minutes post treatment
  time spent on Rota Rod: significant decrease
[2]; 60 minutes post treatment
  time spent on Rota Rod: significant decrease
[3]; 0.01% HD in buffer, 150 Hz
  inhibitory effect on muscle contraction: minimal effects; also recorded: No significant inhibitory effect
[3]; 0.1% HD in buffer, 150 Hz, vs vehicle controls
  reduction in contractile force: about 44%
[3]; 0.5% HD vs vehicle, n=5, p<0.01
  torque generation against stimulus frequency: frequency-dependent decrease in torque generation; also recorded: inhibition is more complete at higher frequencies of stimulation
